# Values joined by “and” are separate entries in the source; they are usually repeats but may differ in a detail not shown here. Equal entries are not always repeated.
# System: C. elegans
# Details: Table S2, C. elegans SS assay, 110 μM, averages of 4 data points
Molecule,Percentage of motility inhibition 0 h,Percentage of motility inhibition 24 h
C[C@@H]1O[C@@H](O[C@H]2[C@H](O)[C@@H](O)[C@H](O[C@H]3CC[C@]4(C)[C@H]5CC=C6[C@@H]7CC(C)(C)CC[C@]7(CO)[C@@H](O)C[C@@]6(C)[C@]5(C)CC[C@H]4C3(C)C)O[C@@H]2CO[C@@H]2O[C@H](CO)[C@@H](O)[C@H](O)[C@H]2O)[C@H](O)[C@H](O)[C@H]1O [Saikosaponin F],1%,0%
"O=c1c(O)c(-c2ccc(O)cc2)oc2cc(O)ccc12 [3,7,4'‐Trihydroxyflavone]",0%,16%
CCOC(=O)NCCCC(=O)NCCc1ccccc1 [Santacruzamate A],0%,0%
COC(=O)C1=CO[C@@H](O[C@@H]2O[C@H](CO[C@@H]3O[C@H](CO)[C@@H](O)[C@H](O)[C@H]3O)[C@@H](O)[C@H](O)[C@H]2O)[C@@H]2C(CO)=CC[C@H]12 [Genipin 1-β-D-gentiobioside],0%,17%
CC(=O)O[C@@H]1CC[C@@]2(C)[C@@H](CC[C@]3(C)[C@@H]2[C@H](O)C=C2[C@@H]4[C@@H](C)[C@H](C)CC[C@]4(C)CC[C@]23C)[C@@]1(C)C(=O)O,24%,23%
COc1c(-c2ccccc2)oc2cc(O)cc(O)c2c1=O [3‐O‐Methylgalangin],0%,4%
CC[C@@]1(O)C(=O)OCc2c1cc1n(c2=O)Cc2cc3cc(OC)ccc3nc2-1 [10‐Methoxycamptothecin],0%,0%
CC(=O)O[C@H]1C[C@@]2(C)[C@@H](C[C@@H](O)[C@H]3[C@@]4(C)CC[C@@H](O)[C@@H](C)[C@@H]4CC[C@@]32C)/C1=C(\CCC=C(C)C)C(=O)[O-].[Na+] [Fusidic acid (sodium salt)],–,35% and 44%
CC(=O)OC1CC2(O)C(OC(=O)c3ccccc3)C3C4(OC(C)=O)COC4CC(O)C3(C)C(O)C(OC(C)=O)C(=C1C)C2(C)C (stereo not drawn) [9-Dihydro-13-acetylbaccatin III],0%,8%
Valepotriate,0%,7%
CN1CC[C@]23c4ccccc4N[C@H]1[C@]21CCN(C)[C@H]3Nc2ccccc21 [Calycanthine],0%,0%
Br.CO[C@H]1CC=C2CCN3CCC4=C(CC(=O)OC4)[C@]23C1 [Dihydro‐β‐er ythroidine (hydrobromide)],7%,6%
CC(=O)NCCc1c[nH]c2ccc(O)cc12 [N‐Acetyl‐5‐hydroxytryptamine],0%,0%
"COc1ccc(-c2oc3c(OC)c(OC)c(OC)c(OC)c3c(=O)c2OC)cc1OC [3,5,6,7,8,3',4'‐Heptemthoxyflavone]",34%,6%
Cc1ccc(C(N)=O)cn1 [6‐Methylni cotinamid e],0%,0%
C=C1[C@H](OC(=O)/C=C(\C)CC)C[C@@H](C(C)C)[C@@H]2[C@@H]([C@@H](C)OC(C)=O)C(=O)C[C@@H]12 [Tussilagone],12%,31%
CN(C)[C@@H]1C(O)=C(C(N)=O)C(=O)[C@@]2(O)C(O)=C3C(=O)c4c(O)ccc(Cl)c4[C@@H](O)[C@H]3C[C@@H]12.Cl [Demeclocycline (hydrochloride)],17%,12%
NC[C@@H]1O[C@H](O[C@H]2[C@@H](O)[C@H](O[C@@H]3[C@@H](O)[C@H](N)C[C@H](N)[C@H]3O[C@H]3O[C@H](CO)[C@@H](O)[C@H](O)[C@H]3N)O[C@@H]2CO)[C@H](N)[C@@H](O)[C@@H]1O.O=S(=O)(O)O [Paromomycin (sulfate)],14%,2%
C[C@H]1CCC2N(C1)C[C@H]1C3CC4[C@@H](CC(=O)C5C[C@@H](O)CC[C@@]54C)C3CCC1[C@]2(C)O (stereo partly drawn) [Peiminine],0%,19%
Cc1c(N(C)CS(=O)(=O)[O-])c(=O)n(-c2ccccc2)n1C.[Na+] [Metamizole (sodium)],17%,2%
CC(C)[C@H](N)C(=O)OCCOCn1cnc2c(=O)nc(N)[nH]c21.Cl [Valacyclovir (hydrochloride)],38%,9%

Molecule,Percentage of motility inhibition 0 h,Percentage of motility inhibition 24 h
CC(=O)OC[C@@]12CC[C@@H](C)[C@](C)(CCC3=CC(=O)OC3)[C@H]1C[C@H](O)C=C2CO [Blinin],0%,7%
CC(C)=CCCC(C(=O)O)C1CCC2(C)C3=C(CCC12C)C1(C)CCC(=O)C(C)(C)C1CC3 (stereo not drawn) [3-Dehydrotrametenolic acid],17%,37%
"O=C(N[C@@H](c1ccccc1)[C@@H](O)C(=O)O)c1ccccc1 [N‐Benzoyl‐(2R,3S)‐3‐phenylisoserine]",54%,29%
Vitamin B12,34%,0%
C[C@H]1O[C@@H](O[C@H]2CC[C@@]3(C)[C@@H](CC[C@]4(C)[C@@H]3C=CC3=C5CC(C)(C)CC[C@]5(CO)[C@H](O)C[C@]34C)[C@]2(C)CO)[C@H](O)[C@@H](O[C@@H]2O[C@H](CO)[C@@H](O)[C@H](O)[C@H]2O)[C@H]1O [Saikosaponin B2],19%,11%
C=C1CC[C@@H]2[C@](C)(CO)[C@H](O)CC[C@@]2(C)[C@@H]1/C=C/C1=CCOC1=O [Dehydroandrographolide],0% and 4%,7% and 9%
C[C@@H](O)[C@H]1C(=O)N2C(C(=O)O)=C(S[C@@H]3CN[C@H](CNS(N)(=O)=O)C3)[C@H](C)[C@H]12.O [Doripenem (monohydrate)],15%,7%
CC(C)=CCC[C@H](C)[C@@H]1CC[C@]2(C)C3=C(CC[C@@]12C)[C@@]1(C)CC[C@H](O)C(C)(C)[C@@H]1CC3 [Tirucallol],12%,39%
O=c1c2cc(O)c(O)cc2oc2c([C@@H]3O[C@H](CO)[C@@H](O)[C@H](O)[C@H]3O)c(O)cc(O)c12 [Isomangiferin],28%,46%
Rebaudioside C,0%,6%
CCCCCc1cc(=O)c2ccccc2n1C [1‐Methyl‐2‐pentyl‐4(1H)‐quinolinone],44%,30%
CCCCCCCCCCCCCc1cc(=O)c2ccccc2n1C [Dihydroevocarpine],3%,0%
Cc1cc(NS(=O)(=O)c2ccc(N)cc2)nc(C)n1 [Sulfisomidin],26%,10%
CC1OC(OC2C(Oc3cc(O)c4c(=O)cc(-c5ccc(O)cc5)oc4c3)OC(COC3OC(CO)C(O)C(O)C3O)C(O)C2O)C(O)C(O)C1O (stereo not drawn) [Apigenin‐7‐O‐(2G‐rhamnosyl)gentiobioside],10%,0%
C[C@@H]1O[C@@H](O[C@H]2[C@H](Oc3c(-c4ccc(O)cc4)oc4cc(O)cc(O)c4c3=O)O[C@H](CO)[C@@H](O)[C@@H]2O)[C@H](O)[C@H](O)[C@H]1O [Kaempferol‐3‐O‐glucorhamnoside],5%,2%
Miquelianin,1%,0%
CCOC(=O)C1=C[C@@H](OC(CC)CC)[C@H](NC(C)=O)[C@@H](N)C1.O=P(O)(O)O [Oseltamivir ( phosphate)],0%,0%
CCC(C)C1NC(=O)C(C)NC1=O (stereo not drawn) [Cyclo(Ile‐Ala)],16%,22%
CC(C)=C[C@H]1C[C@](C)(O)[C@@H]2[C@H]3CC[C@@H]4[C@@]5(C)CC[C@H](O[C@@H]6OC[C@H](O)[C@H](O[C@@H]7O[C@H](CO)[C@@H](O)[C@H](O)[C@H]7O)[C@H]6O[C@@H]6O[C@@H](CO)[C@H](O)[C@H]6O)C(C)(C)[C@@H]5CC[C@@]4(C)[C@@]34CO[C@@]2(C4)O1 [Bacopaside X],9%,35%
C=C1C(=O)O[C@H]2[C@H]1CC[C@]1(C)O[C@@]13CC[C@@](C)(O)[C@H]23 [Epoxymicheliolide],16%,24%

# Source: publication PMC11855827, “High-Throughput Screening of Five Compound Libraries for Anthelmintic Activity and Toxicity Leads to the Discovery of Two Flavonoid Compounds” (International Journal of Molecular Sciences, 2025)
